Laboratory results as given in ChEMBL document CHEMBL1201862, “PubChem BioAssay data set” (2004).
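Tested at 5 concentrations; 48 h exposure; 96-well plates; endpoints linearly interpolated, else capped at highest concentration. At the GI50, growth is halved.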 Activity calls are given as the source filed them. Cut-off read from the data, not from the text of the source: active = GI50 up to about 1.1 µM and inactive = higher.

Assays:
Assay in all cases: NCI-60 cell line screen, 48 h
ACHN = test system: ACHN
DLD-1 = test system: DLD-1
HCT-15 = test system: HCT-15
HL-60 = test system: HL-60
IGROV-1 = test system: IGROV-1
K562 = test system: K562
LOX IMVI = test system: LOX IMVI
NCI-H23 = test system: NCI-H23
RPMI-8226 = test system: RPMI-8226
RXF 393 = test system: RXF 393
SF-268 = test system: SF-268
SF-539 = test system: SF-539
UO-31 = test system: UO-31
A498 = test system: A498
MDA-MB-435 = test system: MDA-MB-435
MDA-N = test system: MDA-N
NCI-H226 = test system: NCI-H226
NCI/ADR-RES = test system: NCI/ADR-RES
SR = test system: SR
SNB-78 = test system: SNB-78

Structure (SMILES) | GI50 (ACHN) | GI50 (DLD-1) | GI50 (HCT-15) [µM] | GI50 (HL-60) | GI50 (IGROV-1) | GI50 (K562) | GI50 (LOX IMVI) | GI50 (NCI-H23) | GI50 (RPMI-8226) | GI50 (RXF 393) | GI50 (SF-268) | GI50 (SF-539) | GI50 (UO-31) | GI50 (A498) | GI50 (MDA-MB-435) | GI50 (MDA-N) | GI50 (NCI-H226) | GI50 (NCI/ADR-RES) | GI50 (SR) | GI50 (SNB-78)
C/C=C/CC(C)[C@@H](O)[C@H](NC)C(=O)O (some centres not stated) | > 100 µM (inactive) | > 100 µM (inactive) | > 100 | > 100 µM (inactive) | > 100 µM (inactive) | > 100 µM (inactive) | > 100 µM (inactive) | > 100 µM (inactive) | > 100 µM (inactive) | > 100 µM (inactive) | > 100 µM (inactive) | > 100 µM (inactive) | > 100 µM (inactive) |  |  |  |  |  |  | 
COc1ccc(OC)c2c(=S)c3ccccc3[nH]c12 | 53 µM (inactive) | > 100 µM (inactive) | 47.5 | 25.3 µM (inactive) | > 96.6 µM (inactive) | 36.3 µM (inactive) | 46.8 µM (inactive) | 99.8 µM (inactive) | 37.9 µM (inactive) | 54.6 µM (inactive) | > 86.1 µM (inactive) | > 79.1 µM (inactive) | 39.4 µM (inactive) | > 92.3 µM (inactive) | 71.3 µM (inactive) | > 100 µM (inactive) | > 21.5 µM (inactive) | > 100 µM (inactive) | 49.5 µM (inactive) | 
C#CC1(O)CC(c2ccccc2)N(C)C(c2ccccc2)C1 (configuration not stated) | > 100 µM (inactive) |  | > 100 | > 100 µM (inactive) | > 100 µM (inactive) | 78.9 µM (inactive) | 51.5 µM (inactive) | > 100 µM (inactive) |  | > 100 µM (inactive) | > 100 µM (inactive) | > 100 µM (inactive) | 67.1 µM (inactive) | > 100 µM (inactive) |  |  | > 100 µM (inactive) |  |  | > 100 µM (inactive)
Cc1cc2c(cc1C)[n+]([O-])c(C(=O)/C=C/c1ccccc1Cl)c(C)[n+]2[O-] | 24.5 µM (inactive) | 19.5 µM (inactive) | 22.5 | 29.9 µM (inactive) | 20.1 µM (inactive) | 37.9 µM (inactive) | 31 µM (inactive) | 19.3 µM (inactive) | 45 µM (inactive) |  | 27.9 µM (inactive) | 19.9 µM (inactive) | 18 µM (inactive) | 36.6 µM (inactive) |  |  | > 100 µM (inactive) |  |  | 33.7 µM (inactive)
O=C(N/C(=C\c1ccc([N+](=O)[O-])cc1)c1nc2ccccc2[nH]1)c1ccccc1 | > 100 µM (inactive) | > 100 µM (inactive) | 45.5 | 70.6 µM (inactive) | > 100 µM (inactive) | > 100 µM (inactive) |  | > 100 µM (inactive) | > 100 µM (inactive) | > 100 µM (inactive) | > 100 µM (inactive) | > 100 µM (inactive) | 21.9 µM (inactive) | > 100 µM (inactive) |  |  |  |  |  | > 100 µM (inactive)
COc1cccc(NC(=O)/C(CS(=O)(=O)CCC(C(C)=O)C(C)=O)=N/NC(C)(C)C)c1 | > 100 µM (inactive) | > 100 µM (inactive) | > 100 | > 100 µM (inactive) | > 100 µM (inactive) | > 100 µM (inactive) | > 100 µM (inactive) | > 100 µM (inactive) | > 100 µM (inactive) | > 100 µM (inactive) | > 100 µM (inactive) | > 100 µM (inactive) | > 100 µM (inactive) | > 100 µM (inactive) |  |  | > 100 µM (inactive) |  |  | > 100 µM (inactive)
COc1ccc(OC)c(/C=C(/C#N)c2ccccc2)c1 | 49 µM (inactive) | 28.7 µM (inactive) | 18.9 | 3.95 µM (inactive) | 31.7 µM (inactive) | 3.15 µM (inactive) | 16.1 µM (inactive) | 23.5 µM (inactive) | 13.4 µM (inactive) | 10.2 µM (inactive) | 34 µM (inactive) | 28.2 µM (inactive) |  | 20.2 µM (inactive) |  |  | 26.9 µM (inactive) |  |  | 
NC(=S)Nc1nnc(-c2ccc(-c3nnc(NC(N)=S)o3)cc2)o1 | > 100 µM (inactive) | > 100 µM (inactive) | > 100 | > 100 µM (inactive) | > 100 µM (inactive) | > 100 µM (inactive) | > 100 µM (inactive) | > 100 µM (inactive) | > 100 µM (inactive) | > 100 µM (inactive) | > 100 µM (inactive) | > 100 µM (inactive) | > 100 µM (inactive) | > 100 µM (inactive) |  |  | > 100 µM (inactive) |  |  | > 100 µM (inactive)
COc1cc(C2C(Cl)C(=O)N2n2cnc3ccccc3c2=O)cc(OC)c1OC (configuration not stated) | > 100 µM (inactive) | > 100 µM (inactive) | 63.7 | 28.2 µM (inactive) | > 100 µM (inactive) | 20.3 µM (inactive) | 57.4 µM (inactive) | > 100 µM (inactive) | 77.8 µM (inactive) | > 100 µM (inactive) | > 100 µM (inactive) |  | > 100 µM (inactive) |  |  |  | > 100 µM (inactive) |  | 31.2 µM (inactive) | > 100 µM (inactive)
O=C1CC2CCCCC2=C1O (configuration not stated) | > 100 µM (inactive) | > 100 µM (inactive) | > 100 | > 100 µM (inactive) | > 100 µM (inactive) | > 100 µM (inactive) | > 100 µM (inactive) | > 100 µM (inactive) | > 100 µM (inactive) | > 100 µM (inactive) | > 100 µM (inactive) | > 100 µM (inactive) | > 100 µM (inactive) | > 100 µM (inactive) |  |  |  |  |  | > 100 µM (inactive)
OC12c3ccccc3C1CCCCCCCCCC21OCCCO1 (configuration not stated) |  | > 100 µM (inactive) | 5.15 | 4.15 µM (inactive) | > 100 µM (inactive) | 5.09 µM (inactive) | > 100 µM (inactive) | > 100 µM (inactive) | > 100 µM (inactive) |  | > 100 µM (inactive) | > 100 µM (inactive) | > 100 µM (inactive) |  |  |  | > 100 µM (inactive) |  | 4.73 µM (inactive) | > 100 µM (inactive)
CC(=O)Nc1ccc(-c2nnc(SCC(=O)Nc3cccc([N+](=O)[O-])c3)o2)cc1 | 15.4 µM (inactive) | 12.8 µM (inactive) | 15.4 | 10.6 µM (inactive) | 4.11 µM (inactive) | 10.3 µM (inactive) | 8.77 µM (inactive) | 5.13 µM (inactive) | 20.7 µM (inactive) | 12.2 µM (inactive) | 16.1 µM (inactive) | 15.8 µM (inactive) | 13.2 µM (inactive) |  |  |  | 10.8 µM (inactive) |  | 2.87 µM (inactive) | 18 µM (inactive)
N=C(N)SCCc1cn2ccccc2n1 | > 100 µM (inactive) | 7.03 µM (inactive) | > 100 | > 100 µM (inactive) |  | > 100 µM (inactive) | > 100 µM (inactive) | > 100 µM (inactive) | > 100 µM (inactive) |  | > 100 µM (inactive) | > 100 µM (inactive) | > 100 µM (inactive) |  |  |  | > 100 µM (inactive) |  | > 100 µM (inactive) | > 100 µM (inactive)
COc1cc2c(cc1OC)C(N(C)C)C(c1ccccc1)=C2Cl (configuration not stated) |  | 15.1 µM (inactive) | 17.5 | 16.1 µM (inactive) | 21.8 µM (inactive) | 27.9 µM (inactive) | 17.4 µM (inactive) | 16.9 µM (inactive) | 18.2 µM (inactive) | 15.5 µM (inactive) |  | 20.5 µM (inactive) | 16.9 µM (inactive) | 22.5 µM (inactive) |  |  | 21.9 µM (inactive) |  | 4.54 µM (inactive) | 
COC(=O)CCC1(NS(=O)(=O)c2ccc(C)cc2)CCC(C(C)(C)C)CC1 (configuration not stated) | > 10 µM (inactive) | 17 µM (inactive) | > 10 | 3 µM (inactive) | 14.6 µM (inactive) | 4.91 µM (inactive) | 17.3 µM (inactive) | 9.71 µM (inactive) | 4.08 µM (inactive) | > 10 µM (inactive) | > 10 µM (inactive) | 13.3 µM (inactive) | 3.3 µM (inactive) | 13.6 µM (inactive) |  |  |  |  |  | 21.3 µM (inactive)
O=[N+]([O-])c1ccccc1S(=O)(=O)c1ccccc1 | > 100 µM (inactive) | > 100 µM (inactive) | > 100 | 31.2 µM (inactive) | > 100 µM (inactive) | > 100 µM (inactive) | > 100 µM (inactive) | 89.7 µM (inactive) | > 100 µM (inactive) | 77.8 µM (inactive) | > 100 µM (inactive) | > 100 µM (inactive) | 28.2 µM (inactive) | > 100 µM (inactive) |  |  | 88.1 µM (inactive) |  | > 100 µM (inactive) | 
COc1cc(CNc2ccc(C(C)C)cc2)cc(OC)c1OC | 21.8 µM (inactive) | 24 µM (inactive) | 16.9 |  | 31 µM (inactive) | 8.57 µM (inactive) | 16.2 µM (inactive) | 20.1 µM (inactive) | 14.4 µM (inactive) | 0.693 µM (active) | 54.7 µM (inactive) | 20.3 µM (inactive) | 20.2 µM (inactive) | 30.4 µM (inactive) |  |  |  |  |  | 35.1 µM (inactive)
COc1cc2oc(-c3ccc(O)cc3O)c(CC=C(C)C)c(=O)c2c(O)c1/C=C/C(C)C [ARTOCARPIN] | 2.8 µM (inactive) |  | 2.96 | 2.75 µM (inactive) | 3.52 µM (inactive) | 2.12 µM (inactive) | 1.8 µM (inactive) | 3.24 µM (inactive) | 2.62 µM (inactive) | 2.12 µM (inactive) | 2.25 µM (inactive) | 4.91 µM (inactive) | 2.95 µM (inactive) | 2.21 µM (inactive) | 1.99 µM (inactive) | 2.79 µM (inactive) | 3.58 µM (inactive) | 2.64 µM (inactive) | 2.02 µM (inactive) | 
